Measurements published in patent US7135556B2, “NPC1L1 (NPC3) and methods of use thereof” (Schering Corporation, priority 2002, dated 2006).

Key:
[1] = biological target: T1, mouse SR-B1 (Mus musculus, UniProt Q61009); experiment: FACS analysis of BODIPY-labeled ezetimibe binding, mSRBI/CHO; conditions: 100 nM BODIPY-labeled ezetimibe
T1 construct: expressed in transfected cells
T1 sequence (Q61009 1-509): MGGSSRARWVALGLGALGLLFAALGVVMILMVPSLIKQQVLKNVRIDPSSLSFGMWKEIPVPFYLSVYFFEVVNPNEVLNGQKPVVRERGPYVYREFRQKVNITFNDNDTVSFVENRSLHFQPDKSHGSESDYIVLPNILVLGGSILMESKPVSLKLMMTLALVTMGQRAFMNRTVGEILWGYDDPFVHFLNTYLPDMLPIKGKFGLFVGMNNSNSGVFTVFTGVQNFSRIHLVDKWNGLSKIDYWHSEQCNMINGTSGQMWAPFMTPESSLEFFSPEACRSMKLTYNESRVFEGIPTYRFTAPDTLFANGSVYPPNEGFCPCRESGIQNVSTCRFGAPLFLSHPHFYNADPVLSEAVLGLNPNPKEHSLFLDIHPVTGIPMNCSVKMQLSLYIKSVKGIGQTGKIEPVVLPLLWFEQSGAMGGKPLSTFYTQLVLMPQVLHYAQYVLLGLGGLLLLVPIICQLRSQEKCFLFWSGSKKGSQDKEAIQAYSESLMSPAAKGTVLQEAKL
Procedure: (§1) “BODIPY” is a fluorescent group which was used to detect the BODIPY-ezetimibe. Chinese hamster ovary (CHO) cells were transiently transfected with rat NPC1L1 DNA (rNPC1L1/CHO), mouse NPC1L1 DNA (mNPC1L1/CHO), mouse SR-B1 DNA (mSRBI/CHO) or EGFP DNA (EGFP/CHO). EGFP is enhanced green fluorescent protein which was used as a positive control. […] Control experiments were also performed wherein the cells were not labeled with the BODIPY-ezetimibe and wherein untransfected CHO cells were labeled with the BODIPY-ezetimibe.

[2] = biological target: T2, mouse NPC1L1 (Mus musculus, UniProt Q6T3U4); experiment: FACS analysis of BODIPY-labeled ezetimibe binding, mNPC1L1/CHO; conditions: 100 nM BODIPY-labeled ezetimibe
T2 construct: using clone specific PCR primers to generate the ORF flanked by appropriate restriction sites; expressed in transfected cells
Procedure: as §1

[3] = system: untransfected CHO cells; experiment: FACS analysis of BODIPY-labeled ezetimibe binding, untransfected CHO cells; set-up: species or system chinese hamster; conditions: 100 nM BODIPY-labeled ezetimibe
Procedure: as §1

[4] = biological target: T3, rat NPC1L1 (Rattus norvegicus, UniProt Q6T3U3); experiment: FACS analysis of BODIPY-labeled ezetimibe binding, rNPC1L1/CHO; conditions: 100 nM BODIPY-labeled ezetimibe
T3 construct: using clone specific PCR primers to generate the ORF flanked by appropriate restriction sites; expressed in transfected cells
Procedure: as §1

[5] = system: cholesterol absorption; experiment: Cholesterol absorption in mice, dual fecal isotope ratio method (cholesterol/sitostanol) (Example 24); assay type: in vivo, mouse; conditions: chow diet
Procedure: Cholesterol absorption in the mice was determined by the dual fecal isotope ratio method as described by Altmann et al. (Biochim. Biophys. Acta. 1580(1):77–93 (2002)). […] Mice were gavaged with ^14C-cholesterol (1 μCi, 0.1 mg unlabeled cholesterol) and ^3H-sitostanol (2 μCi) in 0.1 ml corn oil. Feces were collected for 2 days and fecal ^14C-cholesterol and ^3H-sitostanol levels were determined by combustion in a Packard Oxidizer. The fraction of cholesterol absorbed, as evaluated by the fecal dual isotope technique, was similar in wild type (+/+) and heterozygous mice (+/−) fed a chow diet (heterozygous mice absorbed 46±5% and age matched wild type mice absorbed 51±3% of the dose of ^14C-cholesterol).

[6] = biological target: T4, SR-B1 (Mus musculus, UniProt Q61009); experiment: Cholesterol uptake assay (Example 4), [3H]-cholesterol, CHO cells expressing SR-B1; assay type: cell-based; conditions: 10 μM ezetimibe
T4 construct: expressed in transfected cells; host or cells: CHO cells
T4 sequence (Q61009 1-509): T1 sequence (Q61009 1-509)
Description: The cells were harvested and the lipids were organically extracted. The extracted lipids were spotted on thin-layer chromatography (TLC) plates and resolved within an organic vapor phase. The free cholesterol bands for each assay were isolated and counted in a scintillation counter.

Row | [3H]-cholesterol uptake [6] | Molecule | staining of cells (FACS) [1] | staining of cells (FACS) [2] | staining of cells (FACS) [3] | staining of cells (FACS) [4] | fraction of cholesterol absorbed (of the dose of 14C-cholesterol) ([5]; NPC1L1 knockout mice (−/−), ezetimibe 10 mg/kg/day) [%] | fraction of cholesterol absorbed (of the dose of 14C-cholesterol) ([5]; wild type mice, ezetimibe 10 mg/kg daily) [%]
1 |  | N-(4,4-difluoro-5.7-dimethyl-4-bora-3a.4a-diaza-s-indacene-3-vl)methyl iodoacetamide/ezetimibe [BODIPY-ezetimibe] | detected | No staining | No staining | No staining |  | 
2 | inhibited | O=C1[C@H](CC[C@H](O)c2ccc(F)cc2)[C@@H](c2ccc(O)cc2)N1c1ccc(F)cc1 [ezetimibe] |  |  |  |  | 16.2±0.6 | 16.1±0.3
